This note sets out measurements from patent publication US11312702B2, “Substituted quinoline-8-carbonitrile derivatives having androgen receptor degradation activity and uses thereof” (ACCUTAR BIOTECHNOLOGY INC., priority 2019, dated 2022).

Holding throughout (type): cell-based
In assay [1] the target is T1, androgen receptor (AR) (Homo sapiens, UniProt P10275, T878A).
T1 construct: endogenous in cells; host or cells: LNCAP
T1 sequence (P10275 1-920 T878A): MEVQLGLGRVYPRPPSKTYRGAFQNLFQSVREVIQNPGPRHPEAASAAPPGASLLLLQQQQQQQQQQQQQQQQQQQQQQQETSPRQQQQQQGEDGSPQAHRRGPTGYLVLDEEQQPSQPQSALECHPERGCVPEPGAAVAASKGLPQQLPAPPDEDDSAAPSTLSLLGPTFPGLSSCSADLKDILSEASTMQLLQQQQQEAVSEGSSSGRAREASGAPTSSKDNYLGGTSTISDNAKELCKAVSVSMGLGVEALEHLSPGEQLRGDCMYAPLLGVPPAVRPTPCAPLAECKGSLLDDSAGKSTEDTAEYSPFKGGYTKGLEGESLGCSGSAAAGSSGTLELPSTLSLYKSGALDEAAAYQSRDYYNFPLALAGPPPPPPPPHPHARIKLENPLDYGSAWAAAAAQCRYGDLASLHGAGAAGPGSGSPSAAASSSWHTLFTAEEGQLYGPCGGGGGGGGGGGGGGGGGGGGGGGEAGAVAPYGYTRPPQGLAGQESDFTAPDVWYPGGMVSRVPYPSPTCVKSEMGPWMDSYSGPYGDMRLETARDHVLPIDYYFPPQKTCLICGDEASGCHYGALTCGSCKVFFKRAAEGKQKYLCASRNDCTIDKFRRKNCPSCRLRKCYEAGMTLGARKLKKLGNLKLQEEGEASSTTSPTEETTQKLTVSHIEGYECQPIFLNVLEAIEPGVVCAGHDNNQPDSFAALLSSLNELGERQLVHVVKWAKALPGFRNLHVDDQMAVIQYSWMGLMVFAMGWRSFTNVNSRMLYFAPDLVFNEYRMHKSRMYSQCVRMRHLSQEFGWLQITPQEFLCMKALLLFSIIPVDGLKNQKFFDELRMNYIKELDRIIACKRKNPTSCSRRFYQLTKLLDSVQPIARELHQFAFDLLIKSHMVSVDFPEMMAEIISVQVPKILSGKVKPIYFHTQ
As to the kind of experiment: AR degradation activity in LNCAP cells (Western blot). The following applies: LNCAP cell line, 24 hours after administration; DC50 = concentration for 50% target protein degradation. As for the experimental part: (§1) LNCAP, VCAP and 22Rv1 cells were plated in 24-well plates at 1.5×10E5 cells/well in the RPMI growth medium containing 10% FBS and 1% Penicillin Streptomycin, and then incubated at 37° C. overnight. The following day, the test compound was administered to the cells by using 1000× compound stock solution prepared in DMSO at various concentrations. After administration of the compound, the cells were then incubated at 37° C. for 24 hours. Upon completion, the cells were washed with PBS and protein was collected in Laemmli sample buffer (1×; VWR International). Proteins in cell lysate were separated by SDS-PAGE and transferred to Odyssey nitrocellulose membranes (Licor) with iblot® dry blotting transfer system (ThermoFisher). Nonspecific binding was blocked by incubating membranes with Intercept Blocking Buffer (Licor) for 1 hour at room temperature with gentle shaking. The membranes were then incubated overnight at 4° C. with Primary antibodies rabbit anti-AR (1:1,000, Cell Signaling, 5153) and mouse anti-GAPDH (1:5,000, Santa Cruz Biotechnology, sc-47724) diluted in Intercept Blocking Buffer containing 0.1% Tween 20. After washing 3 times with TBS-T, the membranes were incubated with IRDye® […] goat anti-mouse IgG (1:20,000, Licor) or IRDye®8000W goat anti-rabbit IgG (1:20,000, Licor) for 1 hour. After TBS-T washes, membranes were rinsed in TBS and scanned on Odyssey® CLx Imaging System (Licor). The bands were quantified using Image Studio™ Software (Licor).
(§2) Table 4 summarizes the androgen receptor (AR) degradative activity and cell growth inhibition of exemplary compounds in (a) LNCAP, VCAP, and 22Rv1 cell lines 24 hours after administration of the compound; (b) RAMOS cell line 3 days after administration of the compound; and (c) VCAP cell line 6 days after administration of the compound. DC50: compound concentration needed for 50% target protein degradation.

The subject of the next assay is RAMOS cells. The experiment in a line: Cell growth inhibition for Ramos cells (CellTiter-Glo). To be noted: Homo sapiens, 72 h; RAMOS cell line, 3 days after administration. As for the experimental part: RAMOS cells (ATCC) were seeded in 96-well plates at 16,000 cell/well in 90 μl of RPMI growth medium containing 10% Heat-Inactivated Fetal Bovine Serum and 1% Penicillin/Streptomycin. The test compound was administered to the cells by using 10× compound stock solution prepared in growth medium at various concentrations. After administration of the compound, cells were then incubated at 37° C. for 3 days. Before CellTiter-Glo assay, the plates were equilibrated at room temperature for approximately 10 minutes. 100 ul of CellTiter-Glo® Reagent (Promega) was added to each well. The plates were then incubated at room temperature for 10 minutes and luminescence was recorded by EnSpire plate reader (PerkinElmer).
as §2

A further assay relates to VCAP cells. As to the kind of experiment: Cell growth inhibition for VCAP cells (CellTiter-Glo). The following applies: Homo sapiens, 144 h; VCAP cell line, 6 days after administration, 0.1 nM R1881, charcoal-stripped FBS. Here is the method:
VCAP cells (ATCC) were seeded in 96-well plates at 3000 cell/well in 80 μl of DMEM growth medium containing 10% charcoal-stripped FBS (CSS) and 1% Penicillin/Streptomycin. Cells were incubated at 37° C. overnight. The following day, the test compound was administered to the cells by using 10× compound stock solution prepared in growth medium at various concentrations. Four hours later, 0.1 nM R1881 (Sigma) was administered to the cells by using 10× compound stock solution prepared in growth medium. 0.1% DMSO with or without 0.1 nM R1881 was administered as control. Cells were then incubated at 37° C. for 6 days. Before CelTiter-Glo assay, the plates were equilibrated at room temperature for approximately 10 minutes. 100 ul of CellTiter-Glo® Reagent (Promega) was added to each well. The plates were then incubated at room temperature for 10 minutes and luminescence was recorded by EnSpire plate reader (PerkinElmer).
as §2

Assay [2] has as its target T2, androgen receptor (AR) (Homo sapiens, UniProt P10275).
T2 construct: endogenous in cells; host or cells: VCAP
T2 sequence (P10275 1-920): T1 sequence (P10275 1-920 T878A) with A878T
The experiment in a line: AR degradation activity in VCAP cells (Western blot). The following applies: VCAP cell line, 24 hours after administration; DC50 = concentration for 50% target protein degradation. Here is the method:
as §1, §2

SMILES strings stand for the structures. Residue numbers refer to the chain shown, from its start.

Take `CC1(C)C(NC(=O)c2ccc(N3CCC(CN4CCN(c5ccc6c(c5)C(=O)N(C5CCC(=O)NC5=O)C6=O)CC4)CC3)nc2)C(C)(C)C1Oc1ccc(C#N)c2ncccc12` (stereo not drawn) [Compound 2-13, N-(1,3-trans)-3-((8-cyanoquinolin-5-yl)oxy)-2,2,4,4-tetramethylcyclobutyl)-6-(4-((4-(2-(2,6-dioxopiperidin-3-yl)-1,3-dioxoisoindolin-5-yl)piperazin-1-yl)methyl)piperidin-1-yl)nicotinamide]: the half-maximal degradation concentration (DC50) on androgen receptor (AR) [1] and on androgen receptor (AR) [2] was 0.7 nM each time. Also, the GI50 in the assay on RAMOS cells was over 3000 nM; in the assay on VCAP cells, 47.6 nM.

Consider `CC1(C)C(NC(=O)c2cnc(N3CCC(CN4CCN(c5ccc6c(c5)C(=O)N(C5CCC(=O)NC5=O)C6=O)CC4)CC3)nc2)C(C)(C)C1Oc1ccc(C#N)c2ncccc12` (stereo not drawn) [Compound 2-18, N-(1,3-trans)-3-((8-cyanoquinolin-5-yl)oxy)-2,2,4,4-tetramethylcyclobutyl)-2-(4-((4-(2-(2,6-dioxopiperidin-3-yl)-1,3-dioxoisoindolin-5-yl)piperazin-1-yl)methyl)piperidin-1-yl)pyrimidine-5-carboxamide], for which the 50% degradation concentration (DC50) on androgen receptor (AR) [1] and at androgen receptor (AR) [2] was 0.4 nM each time.

In the case of `CC1(C)[C@H](NC(=O)c2ccc(N3CCC(CN4CCN(c5ccc6c(c5)C(=O)N(C5CCC(=O)NC5=O)C6=O)CC4)CC3)nn2)C(C)(C)[C@H]1Oc1ccc(C#N)c2ncccc12` (some centres unmarked) [Compound 2-19], the values for the DC50 on androgen receptor (AR) [1] and at androgen receptor (AR) [2] were 0.5 nM and 1 nM, respectively.

In the case of `CC1(C)[C@H](NC(=O)c2cnc(N3CCC(CN4CCN(c5ccc6c(c5)CN([C@H]5CCC(=O)NC5=O)C6=O)CC4)CC3)nc2)C(C)(C)[C@H]1Oc1ccc(C#N)c2ncccc12` [Compound 2-30], at androgen receptor (AR) [1], the DC50 stood at 0.2 nM. Moreover, the GI50 with RAMOS cells was over 3000 nM; with VCAP cells it was 11.5 nM.

With `CC1(C)C(NC(=O)c2ccc(N3CCC(CN4CCN(c5ccc6c(c5)CN([C@H]5CCC(=O)NC5=O)C6=O)CC4)CC3)nn2)C(C)(C)C1Oc1ccc(C#N)c2ncccc12` (stereo partly drawn) [Compound 2-31, N-((1,3-trans)-3-((8-cyanoquinolin-5-yl)oxy)-2,2,4,4-tetramethylcyclobutyl)-6-(4-((4-(2-((S)-2,6-dioxopiperidin-3-yl)-1-oxoisoindolin-5-yl)piperazin-1-yl)methyl)piperidin-1-yl)pyridazine-3-carboxamide], at androgen receptor (AR) [1], the DC50 amounted to 0.6 nM. Further, the results for the GI50 in the assay with RAMOS cells and with VCAP cells were over 3000 nM and 9.2 nM, respectively.

At androgen receptor (AR) [1], `CC1(C)[C@H](NC(=O)c2ccc(N3CCC(CN4CCN(c5ccc6c(c5)CN(C5CCC(=O)NC5=O)C6=O)CC4)CC3)c(F)c2)C(C)(C)[C@H]1Oc1ccc(C#N)c2ncccc12` (some centres unmarked) [Compound 2-51, N-((1r,3r)-3-((8-cyanoquinolin-5-yl)oxy)-2,2,4,4-tetramethylcyclobutyl)-4-(4-((4-(2-(2,6-dioxopiperidin-3-yl)-1-oxoisoindolin-5-yl)piperazin-1-yl)methyl)piperidin-1-yl)-3-fluorobenzamide] had a DC50 of 0.5 nM. For the same compound, the GI50 with RAMOS cells was over 3000 nM; in the assay on VCAP cells it was 11 nM.

`CC1(C)C(NC(=O)c2cnc(N3CCC(CN4CCN(c5cc6c(cc5F)C(=O)N(C5CCC(=O)NC5=O)C6=O)CC4)CC3)c(F)c2)C(C)(C)C1Oc1ccc(C#N)c2ncccc12` (stereo not drawn) [Compound 2-52, N-((1,3-trans)-3-((8-cyanoquinolin-5-yl)oxy)-2,2,4,4-tetramethylcyclobutyl)-6-(4-((4-(2-(2,6-dioxopiperidin-3-yl)-6-fluoro-1,3-dioxoisoindolin-5-yl)piperazin-1-yl)methyl)piperidin-1-yl)-5-fluoronicotinamide] displayed a DC50 at androgen receptor (AR) [1] of 1.3 nM.

Turning to `CC1(C)[C@H](NC(=O)c2ccc(N3CCC(CN4CCN(c5cc6c(cc5F)C(=O)N([C@H]5CCC(=O)NC5=O)C6)CC4)CC3)c(F)c2)C(C)(C)[C@H]1Oc1ccc(C#N)c2ncccc12` [Compound 2-53, N-((1,3-trans)-3-((8-cyanoquinolin-5-yl)oxy)-2,2,4,4-tetramethylcyclobutyl)-4-(4-((4-(2-((S)-2,6-dioxopiperidin-3-yl)-6-fluoro-1-oxoisoindolin-5-yl)piperazin-1-yl)methyl)piperidin-1-yl)-3-fluorobenzamide], half-maximal degradation on androgen receptor (AR) [1] (DC50) was put at 0.4 nM. This compound yielded a GI50 in the assay with VCAP cells of 11.9 nM.
